Results: patent US10738028B2, “Spiro three-membered ring, spiro five-membered ring peptide deformylase inhibitor and use thereof in antibacteria and anti-tumor” (priority 2016, dated 2020)
Converted amounts (≈) assume the structure as drawn.

Assays:
Type in all cases: cell-based
[1] = tested on: HCT-116 colorectal cancer cell line; assay: CCK-8 proliferation inhibition; conditions: Homo sapiens, HCT-116, 72 h, concentration of 30 μM; 72 hours; CCK-8; read-out: HCT116 inhibition rate/%
How it was run: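 2000 cells/well, McCoy's 5A + 10% newborn bovine serum; overnight attach, 37° C./5% CO2. Cpd from DMSO stock diluted in medium, 72 h. Readout: CCK-8 (1:10). Ctrl 1‰ DMSO.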

[2] = tested on: methicillin-sensitive Staphylococcus epidermidis (MSSE); assay: MIC, two-fold agar dilution (CLSI), clinical isolates
Source text: (§1) 1. The invention adopts the two-fold agar dilution method recommended by the operating procedure of antimicrobial susceptibility testing set by American Clinical and Laboratory Standards Institute (CLSI) to determine the Minimum Inhibitory Concentration (MIC) of the test samples against the tested strains.

[3] = tested on: Enterococcus faecalis (EFA); assay: as above
Source text: as §1

[4] = tested on: methicillin-resistant Staphylococcus epidermidis (MRSE); assay: as above
Source text: as §1

[5] = tested on: methicillin-resistant Staphylococcus aureus (MRSA); assay: as above
Source text: as §1

[6] = tested on: Moraxella catarrhalis (BCA); assay: as above; conditions: for Anti-bacterial activity (MIC), strain BCA 14-10: clinical isolate BCA 14-10
Source text: as §1

[7] = tested on: Enterococcus faecium (EFM); assay: as above
Source text: as §1

[8] = tested on: methicillin-sensitive Staphylococcus aureus (MSSA); assay: as above
Source text: as §1

[9] = tested on: Escherichia coli (including ESBLs, non-ESBLs); assay: as above
Source text: as §1

[10] = tested on: Streptococcus pneoumoniae (SPN); assay: as above
Source text: as §1

SMILES: Cc1cc(NC(=O)[C@@H]2CC3(CC3)CN2C(=O)[C@H](CC2CCCC2)CN(O)C=O)no1 [Example 39]
- inhibition at 30 µM [1]: -10%
- MIC (anti-bacterial activity) ([2]; strain MSSE 15-3): 1 µg/mL (≈ 2.39 µM)
- MIC (anti-bacterial activity) ([2]; strain MSSE 15-4): 1 µg/mL (≈ 2.39 µM)
- MIC (anti-bacterial activity) ([2]; strain MSSE 15-5): 1 µg/mL (≈ 2.39 µM)
- MIC (anti-bacterial activity) ([2]; strain MSSE 15-6): 1 µg/mL (≈ 2.39 µM)
- MIC (anti-bacterial activity) ([3]; strain EFA 15-1): 4 µg/mL (≈ 9.56 µM)
- MIC (anti-bacterial activity) ([3]; strain EFA 15-2): 4 µg/mL (≈ 9.56 µM)
- MIC (anti-bacterial activity) ([3]; strain EFA 15-3): 1 µg/mL (≈ 2.39 µM)
- MIC (anti-bacterial activity) ([3]; strain EFA 15-4): 4 µg/mL (≈ 9.56 µM)
- MIC (anti-bacterial activity) ([3]; strain EFA 15-5): 4 µg/mL (≈ 9.56 µM)
- MIC (anti-bacterial activity) ([3]; strain EFA 15-6): 4 µg/mL (≈ 9.56 µM)
- MIC (anti-bacterial activity) ([3]; strain EFA 15-9): 4 µg/mL (≈ 9.56 µM)
- MIC (anti-bacterial activity) ([4]; strain MRSE 15-1): 1 µg/mL (≈ 2.39 µM)
- MIC (anti-bacterial activity) ([4]; strain MRSE 15-2): 1 µg/mL (≈ 2.39 µM)
- MIC (anti-bacterial activity) ([4]; strain MRSE 15-3): 1 µg/mL (≈ 2.39 µM)
- MIC (anti-bacterial activity) ([4]; strain MRSE 15-7): 1 µg/mL (≈ 2.39 µM)
- MIC (anti-bacterial activity) ([5]; strain MRSA 15-1): 1 µg/mL (≈ 2.39 µM)
- MIC (anti-bacterial activity) ([5]; strain MRSA 15-2): 1 µg/mL (≈ 2.39 µM)
- MIC (anti-bacterial activity) ([5]; strain MRSA 15-3): 1 µg/mL (≈ 2.39 µM)
- MIC (anti-bacterial activity) ([5]; strain MRSA 15-4): 1 µg/mL (≈ 2.39 µM)
- Anti-bacterial activity (MIC), strain BCA 14-10 [6]: 0.5 µg/mL
- MIC (anti-bacterial activity) ([6]; strain BCA 14-1): 1 µg/mL (≈ 2.39 µM)
- MIC (anti-bacterial activity) ([6]; strain BCA 14-4): 1 µg/mL (≈ 2.39 µM)
- MIC (anti-bacterial activity) ([6]; strain BCA 14-5): 0.5 µg/mL (≈ 1.19 µM)
- MIC (anti-bacterial activity) ([6]; strain BCA 14-6): 1 µg/mL (≈ 2.39 µM)
- MIC (anti-bacterial activity) ([6]; strain BCA 14-7): 1 µg/mL (≈ 2.39 µM)
- MIC (anti-bacterial activity) ([6]; strain BCA 14-8): 1 µg/mL (≈ 2.39 µM)
- MIC (anti-bacterial activity) ([7]; strain EFM 15-1): 1 µg/mL (≈ 2.39 µM)
- MIC (anti-bacterial activity) ([7]; strain EFM 15-2): 1 µg/mL (≈ 2.39 µM)
- MIC (anti-bacterial activity) ([7]; strain EFM 15-3): 0.5 µg/mL (≈ 1.19 µM)
- MIC (anti-bacterial activity) ([7]; strain EFM 15-4): 1 µg/mL (≈ 2.39 µM)
- MIC (anti-bacterial activity) ([7]; strain EFM 15-5): 1 µg/mL (≈ 2.39 µM)
- MIC (anti-bacterial activity) ([7]; strain EFM 15-6): 1 µg/mL (≈ 2.39 µM)
- MIC (anti-bacterial activity) ([8]; strain MSSA 15-3): 1 µg/mL (≈ 2.39 µM)
- MIC (anti-bacterial activity) ([8]; strain MSSA 15-4): 1 µg/mL (≈ 2.39 µM)
- MIC (anti-bacterial activity) ([8]; strain MSSA 15-5): 1 µg/mL (≈ 2.39 µM)
- MIC (anti-bacterial activity) ([8]; strain MSSA 15-6): 1 µg/mL (≈ 2.39 µM)
- MIC (anti-bacterial activity) ([9]; strain ECO+ 15-1): 16 µg/mL (≈ 38.2 µM)
- MIC (anti-bacterial activity) ([9]; strain ECO+ 15-2): 32 µg/mL (≈ 76.5 µM)
- MIC (anti-bacterial activity) ([9]; strain ECO+ 15-3): 32 µg/mL (≈ 76.5 µM)
- MIC (anti-bacterial activity) ([9]; strain ECO+ 15-4): 16 µg/mL (≈ 38.2 µM)
- MIC (anti-bacterial activity) ([9]; strain ECO− 15-1): 32 µg/mL (≈ 76.5 µM)
- MIC (anti-bacterial activity) ([9]; strain ECO− 15-2): 32 µg/mL (≈ 76.5 µM)
- MIC (anti-bacterial activity) ([9]; strain ECO− 15-3): 32 µg/mL (≈ 76.5 µM)
- MIC (anti-bacterial activity) ([9]; strain ECO− 15-4): 32 µg/mL (≈ 76.5 µM)
- MIC (anti-bacterial activity) ([10]; strain SPN 16-2): 0.5 µg/mL (≈ 1.19 µM)
- MIC (anti-bacterial activity) ([10]; strain SPN 16-4): 4 µg/mL (≈ 9.56 µM)

SMILES: O=CN(O)C[C@@H](CC1CCCC1)C(=O)N1CC2(CC2)C[C@H]1C(=O)Nc1nncs1 [Example 41, (S)-5-((R)-3-cyclopentyl-2-((N-hydroxyformamido)methyl)propionyl)-N-(1,3,4-thiadiazol-2-yl)-5-azaspiro[2.4]heptane-6-carboxamide]
- inhibition at 30 µM [1]: 24%
- Anti-bacterial activity (MIC), strain MSSE 15-3 ([2]; clinical isolate MSSE 15-3): 1 µg/mL
- Anti-bacterial activity (MIC), strain MSSE 15-4 ([2]; clinical isolate MSSE 15-4): 1 µg/mL
- Anti-bacterial activity (MIC), strain MSSE 15-5 ([2]; clinical isolate MSSE 15-5): 1 µg/mL
- Anti-bacterial activity (MIC), strain MSSE 15-6 ([2]; clinical isolate MSSE 15-6): 1 µg/mL
- Anti-bacterial activity (MIC), strain EFA 15-1 ([3]; clinical isolate EFA 15-1): 4 µg/mL
- Anti-bacterial activity (MIC), strain EFA 15-2 ([3]; clinical isolate EFA 15-2): 4 µg/mL
- Anti-bacterial activity (MIC), strain EFA 15-3 ([3]; clinical isolate EFA 15-3): 1 µg/mL
- Anti-bacterial activity (MIC), strain EFA 15-4 ([3]; clinical isolate EFA 15-4): 4 µg/mL
- Anti-bacterial activity (MIC), strain EFA 15-5 ([3]; clinical isolate EFA 15-5): 4 µg/mL
- Anti-bacterial activity (MIC), strain EFA 15-6 ([3]; clinical isolate EFA 15-6): 4 µg/mL
- Anti-bacterial activity (MIC), strain EFA 15-9 ([3]; clinical isolate EFA 15-9): 4 µg/mL
- Anti-bacterial activity (MIC), strain MRSE 15-1 ([4]; clinical isolate MRSE 15-1): 0.5 µg/mL
- Anti-bacterial activity (MIC), strain MRSE 15-2 ([4]; clinical isolate MRSE 15-2): 1 µg/mL
- Anti-bacterial activity (MIC), strain MRSE 15-3 ([4]; clinical isolate MRSE 15-3): 1 µg/mL
- Anti-bacterial activity (MIC), strain MRSE 15-7 ([4]; clinical isolate MRSE 15-7): 1 µg/mL
- Anti-bacterial activity (MIC), strain MRSA 15-1 ([5]; clinical isolate MRSA 15-1): 0.5 µg/mL
- Anti-bacterial activity (MIC), strain MRSA 15-2 ([5]; clinical isolate MRSA 15-2): 1 µg/mL
- Anti-bacterial activity (MIC), strain MRSA 15-3 ([5]; clinical isolate MRSA 15-3): 0.5 µg/mL
- Anti-bacterial activity (MIC), strain MRSA 15-4 ([5]; clinical isolate MRSA 15-4): 1 µg/mL
- Anti-bacterial activity (MIC), strain BCA 14-1 ([6]; clinical isolate BCA 14-1): 1 µg/mL
- Anti-bacterial activity (MIC), strain BCA 14-4 ([6]; clinical isolate BCA 14-4): 2 µg/mL
- Anti-bacterial activity (MIC), strain BCA 14-5 ([6]; clinical isolate BCA 14-5): 0.25 µg/mL
- Anti-bacterial activity (MIC), strain BCA 14-6 ([6]; clinical isolate BCA 14-6): 4 µg/mL
- Anti-bacterial activity (MIC), strain BCA 14-7 ([6]; clinical isolate BCA 14-7): 1 µg/mL
- Anti-bacterial activity (MIC), strain BCA 14-8 ([6]; clinical isolate BCA 14-8): 4 µg/mL
- Anti-bacterial activity (MIC), strain BCA 14-10 [6]: 0.5 µg/mL
- Anti-bacterial activity (MIC), strain EFM 15-1 ([7]; clinical isolate EFM 15-1): 1 µg/mL
- Anti-bacterial activity (MIC), strain EFM 15-2 ([7]; clinical isolate EFM 15-2): 2 µg/mL
- Anti-bacterial activity (MIC), strain EFM 15-3 ([7]; clinical isolate EFM 15-3): 0.25 µg/mL
- Anti-bacterial activity (MIC), strain EFM 15-4 ([7]; clinical isolate EFM 15-4): 1 µg/mL
- Anti-bacterial activity (MIC), strain EFM 15-5 ([7]; clinical isolate EFM 15-5): 1 µg/mL
- Anti-bacterial activity (MIC), strain EFM 15-6 ([7]; clinical isolate EFM 15-6): 2 µg/mL
- Anti-bacterial activity (MIC), strain MSSA 15-3 ([8]; clinical isolate MSSA 15-3): 1 µg/mL
- Anti-bacterial activity (MIC), strain MSSA 15-4 ([8]; clinical isolate MSSA 15-4): 0.5 µg/mL
- Anti-bacterial activity (MIC), strain MSSA 15-5 ([8]; clinical isolate MSSA 15-5): 0.5 µg/mL
- Anti-bacterial activity (MIC), strain MSSA 15-6 ([8]; clinical isolate MSSA 15-6): 0.5 µg/mL
- Anti-bacterial activity (MIC), strain ECO+ 15-1 ([9]; clinical isolate ECO+ 15-1): 32 µg/mL
- Anti-bacterial activity (MIC), strain ECO+ 15-2 ([9]; clinical isolate ECO+ 15-2): 32 µg/mL
- Anti-bacterial activity (MIC), strain ECO+ 15-3 ([9]; clinical isolate ECO+ 15-3): 32 µg/mL
- Anti-bacterial activity (MIC), strain ECO+ 15-4 ([9]; clinical isolate ECO+ 15-4): 32 µg/mL
- Anti-bacterial activity (MIC), strain ECO− 15-1 ([9]; clinical isolate ECO− 15-1): 32 µg/mL
- Anti-bacterial activity (MIC), strain ECO− 15-2 ([9]; clinical isolate ECO− 15-2): 32 µg/mL
- Anti-bacterial activity (MIC), strain ECO− 15-3 ([9]; clinical isolate ECO− 15-3): 32 µg/mL
- Anti-bacterial activity (MIC), strain ECO− 15-4 ([9]; clinical isolate ECO− 15-4): 32 µg/mL
- Anti-bacterial activity (MIC), strain SPN 16-2 ([10]; clinical isolate SPN 16-2): 0.25 µg/mL
- Anti-bacterial activity (MIC), strain SPN 16-4 ([10]; clinical isolate SPN 16-4): 4 µg/mL
